Assay results taken from ChEMBL document CHEMBL5506048, “Modular Biomimetic Strategy Enables Discovery and SAR Exploration of Oxime Macrocycles as Influenza A Virus (H1N1) Inhibitors” (J Med Chem, 2024).
Calls of active or inactive are those of the source. The calls are words filed in the database; no cut-off is given here.

Columns and labels:
Influenza A virus [1] = assay: Antiviral activity against Influenza virus H1N1 A/Puerto Rico/8/34 (A/PR/8/34) infected in human Calu-3 cells assessed as viral RNA measured after 3 days by one-time real time PCR assay; type: functional, organism-based; settings: Calu-3, 72 h
Calu-3 = assay: Cytotoxicity against human Calu-3 cells assessed as cell viability measured after 3 days by CellTiter-Lumi Steady Plus Luminescent Cell Viability Assay Kit; type: functional; settings: Calu-3, 72 h, time 3 day
[2] = Selectivity index, ratio of CC50 for human Calu-3 cells to EC50 for antiviral activity against Influenza virus HINI A/Puerto Rico/8/34 (A/PR/8/34); type: toxicity; settings: read-out: Selectivity Index
Influenza A virus [3] = assay: Antiviral activity against Influenza virus H1N1 A/Puerto Rico/8/34 (A/PR/8/34) 2.5TCID50 infected in human Calu-3 cells assessed as reduction in virus-induced cytopathic effect by measuring cell rounding at 0.0156 to 37 uM measured after 3 days by immunofluorescence assay; type: functional, organism-based; settings: dose 0.0156-37 µM, time 3.0 day
Influenza A virus [4] = assay: Antiviral activity against Influenza virus H1N1 A/Puerto Rico/8/34 (A/PR/8/34) 2.5TCID50 infected in human Calu-3 cells assessed as reduction in virus-induced cytopathic effect by measuring degeneration at 0.0156 to 37 uM measured after 3 days by immunofluorescence assay; type: functional, organism-based; settings: dose 0.0156-37 µM, time 3.0 day
Influenza A virus [5] = assay: Antiviral activity against Influenza virus H1N1 A/Puerto Rico/8/34 (A/PR/8/34) 2.5TCID50 infected in human Calu-3 cells assessed as reduction in virus-induced cytopathic effect by measuring sloughing at 0.0156 to 37 uM measured after 3 days by immunofluorescence assay; type: functional, organism-based; settings: dose 0.0156-37 µM, time 3.0 day
Influenza A virus [6] = assay: Antiviral activity against HIV pseudotyped H5N1 HA infected in human 293T cells assessed as inhibition of viral entry into cells by measuring intensity of chemiluminescence measured after 3 days by Bright-Glo luciferase assay; type: functional, organism-based; settings: HEK293T, time 3.0 day
Ebolavirus = assay: Antiviral activity against HIV pseudotyped EBOV GP infected in human 293T cells assessed as inhibition of viral entry into cells by measuring intensity of chemiluminescence measured after 3 days by Bright-Glo luciferase assay; type: functional, organism-based; settings: HEK293T, time 3.0 day
Influenza A virus [7] = assay: Antiviral activity against Influenza virus HIN1 (A/California/07/2009 pdm09) infected in human Calu-3 cells assessed as viral RNA measured after 3 days by one-time real time PCR assay; type: functional, organism-based; settings: Calu-3, 72 h
Influenza A virus [8] = assay: Antiviral activity against Influenza virus H3N2 (A/Hong Kong/8/68) infected in human Calu-3 cells assessed as viral RNA measured after 3 days by one-time real time PCR assay; type: functional, organism-based; settings: Calu-3, 72 h
Influenza B virus = assay: Antiviral activity against Influenza virus Flu B (B/Taiwan/2/62) infected in human Calu-3 cells assessed as viral RNA measured after 3 days by one-time real time PCR assay; type: functional, organism-based; settings: B/Taiwan/2/62, Calu-3, 72 h
Influenza A virus [9] = assay: Synergistic antiviral activity against Influenza virus H1N1 A/Puerto Rico/8/34 (A/PR/8/34) infected in human Calu-3 cells assessed as combination index of 50% inhibition at 0.06 nM in presence of 450 nM oseltamivir acid; type: functional
Influenza A virus [10] = assay: Synergistic antiviral activity against Influenza virus H1N1 A/Puerto Rico/8/34 (A/PR/8/34) infected in human Calu-3 cells assessed as combination index of 50% inhibition at 0.24 nM in presence of 170 nM oseltamivir acid; type: functional
Influenza A virus [11] = assay: Synergistic antiviral activity against Influenza virus H1N1 A/Puerto Rico/8/34 (A/PR/8/34) infected in human Calu-3 cells assessed as combination index of 50% inhibition at 0.98 nM in presence of 172 nM oseltamivir acid; type: functional
Influenza A virus [12] = assay: Synergistic antiviral activity against Influenza virus H1N1 A/Puerto Rico/8/34 (A/PR/8/34) infected in human Calu-3 cells assessed as combination index of 50% inhibition at 2.61 nM in presence of 62.5 nM oseltamivir acid; type: functional
Influenza A virus [13] = assay: Synergistic antiviral activity against Influenza virus H1N1 A/Puerto Rico/8/34 (A/PR/8/34) infected in human Calu-3 cells assessed as combination index of 50% inhibition at 3.91 nM in presence of 83.1 nM oseltamivir acid; type: functional
Influenza A virus [14] = assay: Synergistic antiviral activity against Influenza virus H1N1 A/Puerto Rico/8/34 (A/PR/8/34) infected in human Calu-3 cells assessed as combination index of 50% inhibition at 15.6 nM in presence of 31 nM oseltamivir acid; type: functional
Influenza A virus [15] = assay: Synergistic antiviral activity against Influenza virus H1N1 A/Puerto Rico/8/34 (A/PR/8/34) infected in human Calu-3 cells assessed as combination index of 50% inhibition at 28.3 nM in presence of 3.91 nM oseltamivir acid; type: functional
[16] = Stability of the compound in RPMI 1640 cell culture medium containing 10% fetal bovine serum assessed as compound remaining measured after 24 hrs by LC-MS/MS analysis; type: physicochemical, cell-free; settings: cattle, read-out: Stability
[17] = Stability of the compound in pH 7.4 PBS buffer assessed as compound remaining measured after 24 hrs by LC-MS/MS analysis; type: physicochemical; settings: read-out: Stability
[18] = Half life in ICR (CD-1) mouse at 10 mg/kg, po measured upto 24 hrs by LC-MS/MS analysis; type: ADME, organism-based; settings: in vivo
[19] = Tmax in ICR (CD-1) mouse at 10 mg/kg, po measured upto 24 hrs by LC-MS/MS analysis; type: ADME, organism-based; settings: in vivo
[20] = Cmax in ICR (CD-1) mouse at 10 mg/kg, po measured upto 24 hrs by LC-MS/MS analysis; type: ADME, organism-based; settings: in vivo
[21] = AUC (0 to infinity) in ICR (CD-1) mouse at 10 mg/kg, po measured upto 24 hrs by LC-MS/MS analysis; type: ADME, organism-based; settings: in vivo
[22] = Oral bioavailability in ICR (CD-1) mouse at 10 mg/kg measured upto 24 hrs by LC-MS/MS analysis; type: ADME, organism-based; settings: in vivo
[23] = Half life in ICR (CD-1) mouse at 2 mg/kg, iv measured upto 24 hrs by LC-MS/MS analysis; type: ADME, organism-based; settings: in vivo
[24] = AUC (0 to infinity) in ICR (CD-1) mouse at 2 mg/kg, iv measured upto 24 hrs by LC-MS/MS analysis; type: ADME, organism-based; settings: in vivo
[25] = Clearance in ICR (CD-1) mouse at 2 mg/kg, iv measured upto 24 hrs by LC-MS/MS analysis; type: ADME, organism-based; settings: in vivo
[26] = Volume of distribution in ICR (CD-1) mouse at 2 mg/kg, iv measured upto 24 hrs by LC-MS/MS analysis; type: ADME, organism-based; settings: in vivo

Compound: C=C1Cc2cc(C(F)(F)F)ccc2C(=O)NCC2(CCC2)/C(=N/OC)CCCOC1=O
- EC50 (Influenza A virus [1]): 23 nM
- EC90 (Influenza A virus [1]; time 3 day): 142 nM
- CC50 (Calu-3): > 100 µM
- selectivity ratio [2]: > 4350
- Activity (Influenza A virus [3]): Active
- Activity (Influenza A virus [4]): Active
- Activity (Influenza A virus [5]): Active
- Activity (Influenza A virus [6]): inactive
- Activity (Ebolavirus): inactive
- EC50 (Influenza A virus [7]): 62 nM
- EC50 (Influenza A virus [8]): > 50 µM
- EC50 (Influenza B virus): > 50 µM
- CI50 (Influenza A virus [9]): 0.84
- CI50 (Influenza A virus [10]): 0.32
- CI50 (Influenza A virus [11]): 0.35
- CI50 (Influenza A virus [12]): 0.2
- CI50 (Influenza A virus [13]): 0.28
- CI50 (Influenza A virus [14]): 0.57
- CI50 (Influenza A virus [15]): 0.93
- remaining at 24 h [16]: > 90%
- remaining at 24 h [17]: > 90%
- half-life [18]: 39 min
- Tmax [19]: 15 min
- Cmax [20]: 2.42 ng/mL
- AUC(0-inf) [21]: 2.65 ng·h/mL
- bioavailability [22]: 0.12%
- half-life [23]: 24.6 min
- AUC(0-inf) [24]: 222 ng·h/mL
- clearance [25]: 151 mL/min/kg
- Vd [26]: 3.12 L/kg
